Laboratory results as given in US20100234832A1, “METHOD FOR VASCULAR TREATMENT” (priority 2009, published 2010).

Tested on: femoral nerve
Test: Femoral nerve block with lidocaine injected under echographic/ultrasound control
Format: in vivo, human
Method: To accomplish femoral nerve block, an appropriate amount of local anesthetic is injected in the vicinity of femoral nerve close to the femoral artery under ultrasound control. After anesthesia takes effect, a needle is inserted through the skin into the vein to be treated and an optical fiber is introduced inside it. A typical procedure to carry out this task is to insert a guide wire inside the vein through needle's lumen, after the anesthesia has been introduced and takes effect. Once the guide wire is inserted, a dilator is used to slightly increase the size of the punction made onto the skin, in order to accomplish an easy catheter insertion. After catheter is inserted, guide wire is extracted and optical fiber is inserted through the catheter inside the vein and is advanced to the desired start position.
A main objective of this femoral block is to achieve sensory nerve function for blockage only, thus the least amount of lidocaine used yields the least probability for motor function to be affected. […] As a consequence, there is some minimal amount needed, which might differ by patient and procedure for an adequate and complete sensory block.
Lidocaine solutions much above 0.5% are thus not preferred, as the likelihood of concomitant loss of motor control along with the desired sensory blockage becomes too great, rendering patient recovery period longer. Concentration of other local anesthetics, with differing activity, would have a somewhat different effective range of preferred use.
A safe and effective femoral block procedure is achieved by sequentially carrying out the following steps: • 1. Attach monitors and if necessary give light sedation. • 2. Put patient in supine position with the operative leg slightly abducted. • 3. Prepare the groin. • 4. Place a transducer with the appropriate frequency range (10-12 MHz) along the inguinal crease. If the femoral artery and nerve are deep (>4 cm), use a 7 MHz transducer. • 5. Optimize machine imaging capability; select appropriate depth of e d (usually within 1-3 cm), focus range and gain. • 6. Identify the femoral artery. […]

SMILES: CCN(CC)CC(=O)Nc1c(C)cccc1C [lidocaine]
- anesthetic effect (sensory femoral nerve block) (0.1% lidocaine, femoral block): functioned well
- motor function blockage (20 ml of 1% lidocaine, femoral block): also blocked motor function
- femoral block (20 ml of lidocaine, concentration 0.1% to 0.5%, injected under echographic control): accomplish the femoral block
